The results in this text go back to US20210177889A1, “GASEOUS PHARMACEUTICAL COMPOSITION FOR HYPERTENSION THERAPY” (KEIO UNIVERSITY, priority 2019, published 2021).

In experiment [1] the test system is hypertension attributed to 5/6 nephrectomy. Briefly: Prophylactic effect of one hour daily H2 inhalation after 5/6 nephrectomy, invasive arterial blood pressure at 4 weeks. The following applies: four weeks after 5/6 nephrectomy; 1.3% H2 inhaled one hour daily from immediately after nephrectomy; N=3; mean±SE; P=0.02 vs control gas (134.1±3.3). The class given is in vivo, Lewis rat. The protocol: Invasive blood pressure measurement was performed 4 weeks after gas inhalation. An arterial catheter (PE50, Natsume) was inserted under isoflurane inhalation into the left femoral artery, and arterial blood pressure was measured (DX-360, Nihon Kohden). In order to elicit renal hypertension, 5/6 nephrectomy was carried out with slight modification to previously described methods (Nephrology (Carlton) 19, 552-561; 10.1111/nep.12279 (2014); J. Am. Soc. Nephrol. 4, 2023-2031 (1994); and Kidney Int. 40, 29-34; 10.1038/ki.1991.175 (1991).). Briefly, rats were anesthetized by isoflurane inhalation (induction at 4% and maintenance at 1.5%), and upper midline laparotomy of about 4 cm was carried out. Surgical operation was performed under a microscope, the left renal artery branch was identified, and selectively ligated with 7-0 silk at a position as close as possible to the left kidney so that macroscopic infarction is caused in about ⅔ of the left renal cortex. In the first pilot research (FIGS. 1a and 2), a high-temperature cautery pen (AA11, Bovie, Tenn., U.S.A.) was used to add the resection of the infarcted portion of the kidney. Subsequently, the right renal artery, the renal vein, and the urinary duct was ligated with 4-0 silk, and the right kidney were resected. The abdominal wall and the skin were closed with a 4-0 nylon thread. […]

Experiment [2] shares this test system. Kind of experiment: Continuous telemetry blood pressure monitoring after 5/6 nephrectomy with daily H2 inhalation. The class given is in vivo, Lewis rat. The text has this:
In order to monitor continuous blood pressure fluctuation, telemetry transmitters were implanted into rats. Specifically, rats were anesthetized with isoflurane, and the left groin was disinfected with 1% chlorhexidine. An incision of about 1.5 cm was made in the left groin, the left femoral artery was exposed, and a telemetry transmitter (HD-S10, Physiotel HD Telemetry, Data Science International) catheter was inserted into the left femoral artery. The tip of the transmitter catheter was placed in the abdominal aorta caudally from the branch of the renal artery. The transmitter body was inserted into a subcutaneous pocket made in the left lower back, and the skin was sutured. All surgical intervention was performed under sterile conditions. In order to elicit renal hypertension, 5/6 nephrectomy was carried out with slight modification to previously described methods (Nephrology (Carlton) 19, 552-561; 10.1111/nep.12279 (2014); J. Am. Soc. Nephrol. 4, 2023-2031 (1994); and Kidney Int. 40, 29-34; 10.1038/ki.1991.175 (1991).). Briefly, rats were anesthetized by isoflurane inhalation (induction at 4% and maintenance at 1.5%), and upper midline laparotomy of about 4 cm was carried out. Surgical operation was performed under a microscope, the left renal artery branch was identified, and selectively ligated with 7-0 silk at a position as close as possible to the left kidney so that macroscopic infarction is caused in about ⅔ of the left renal cortex. In the first pilot research (FIGS. 1a and 2), a high-temperature cautery pen (AA11, Bovie, Tenn., U.S.A.) was used to add the resection of the infarcted portion of the kidney. Subsequently, the right renal artery, the renal vein, and the urinary duct was ligated with 4-0 silk, and the right kidney were resected. The abdominal wall and the skin were closed with a 4-0 nylon thread. The anesthetic time was uniformly 30 minutes in all rats. H2 gas (1.3% H2+21% O2+77.7 N2) and control gas (21% O2+79% N2) were filled into gas cylinders in advance at a factory. The H2 group and the control group were allowed to inhale the H2 gas and the control gas that were mixed in advance. All animals were allowed to inhale the assigned gas at 10 L/minute for 1 hour in an established anesthesia box, and inhaled for an additional three minutes to purge the box (i.e. a total of 63 minutes). In the nephrectomy model and SHR, gas inhalation was repeated every day for 4 weeks and 2 weeks, respectively. In order to investigate the time course necessary for H2 gas to exert therapeutic effect, rats implanted with telemetry (8 weeks-old; 3 for each group) were subjected to 5/6 nephrectomy, and the blood pressure fluctuation was continuously monitored (FIG. 1b). In the first gas inhalation immediately after 5/6 nephrectomy, the blood pressure of the H2 gas group was reduced compared to the control group (117.4±1.8 mmHg vs. 125.6±4.7 mmHg, P=0.04). […] Before the start of inhalation on Day 2, there was no difference in blood pressure between the two groups. […] To examine the anti-hypertensive effect of H2 in more detail, chronic and continuous monitoring of blood pressure using a non-invasive method with a wireless implantable telemetry system (FIG. 5a) was conducted. Gas inhalation was started on the day of 5/6 nephrectomy and continued for 4 weeks. Again, there was no difference in the time course of change in renal function between the two groups.

On to `[2H][2H]` [H2 gas, Molecular hydrogen (H2)], for which the “mean arterial pressure (MAP)” value in experiment [1] was 94.2±10.3 mmHg. Moreover, the “time course of change in renal function between the two groups” value in experiment [2] (5/6 nephrectomy, 4 weeks of gas inhalation) is “no difference”. Further, the “blood pressure before inhalation compared to the control group” value in experiment [2] (after Week 1 of daily inhalation, telemetry) is “began to decrease”. Also, the “difference in blood pressure between H2 and control groups when inhalation was stopped” value in experiment [2] (after the first gas inhalation, telemetry) is recorded as “immediately disappeared”. In addition, the “blood pressure in the first gas inhalation” value in experiment [2] (first inhalation immediately after 5/6 nephrectomy, telemetry, N=3, P=0.04 vs control (125.6±4.7)) is on record as 117.4±1.8 mmHg. For the same compound, the “decrease in blood pressure with longer period of gas inhalation vs control 5/6 nephrectomy” value in experiment [2] (inhalation from the day of 5/6 nephrectomy for 4 weeks, telemetry, P<0.05) is recorded as “greater decrease”. For the same compound, in experiment [2] (telemetry, before inhalation, Day 2), the “difference in blood pressure between the two groups before the start of inhalation on Day 2” value is on record as “no difference”.
